Measurements taken from patent publication US10858364B2, “Imidazopyrazine inhibitors of Bruton's tyrosine kinase” (Acerta Pharma B.V., priority 2016, dated 2020).

How the values were obtained:
anti-IgM-induced CD69 = assay: Human PBMC anti-IgM-induced CD69 assay; assay type: cell-based; settings: CD19+ B cells, 2 h compound, 18 h anti-IgM, read-out: hPBMC: anti-IgM-induced CD69 EC50
Protocol: Whole blood was collected in heparin-coated Vacutainer tubes (BD Biosciences, San Jose, Calif.) and used for isolation of PBMCs using Ficoll-Hypaque (Pharmacia, Uppsala, Sweden). Isolated PBMCs were cryopreserved in 90% FCS/10% DMSO until later use.
Cells from cryogenic storage were thawed in a 37° C. water bath, diluted with RPMI/1% FCS, washed 2 times, and then plated at 2×10^5 cells per well in RPMI/10% FCS in 96 well plates.
Serial dilutions […] from 10 mM to 316 nM of test compounds are made in 100% DMSO, followed by a 100-fold dilution into RPMI/1% FCS. For each well, 10 μL was then transferred to the deep well plate containing 90 μL of PBMC cells. […]
Following stimulation with anti-IgM, PBMCs were incubated on ice for 30 min with anti-CD69-FITC, anti-CD19-BV421 (BD Biosciences #555530 and #562440, respectively) and 7AAD (Life Technologies # A1310). Flow cytometry was performed and fluorescence values were obtained from the CD69-FITC channel in CD19+ gated life B cells. EC50 values are determined by curve fitting of the experimental results using GraphPad Prism.
PBMC assay: Cryopreserved PBMC were thawed, washed, and suspended at 2×10^5 cells/well in RPMI+10% FBS in 96-well plates. […] EC50 values were determined by curve fitting of the experimental results using Dotmatics. […]

ERBB2 = ERBB2 (Homo sapiens (Human), UniProt P04626); assay: ERBB2 Z'-LYTE kinase assay; assay type: biochemical; settings: 1 h pre-incubation, Km ATP
Chain of ERBB2 (P04626 23-1255): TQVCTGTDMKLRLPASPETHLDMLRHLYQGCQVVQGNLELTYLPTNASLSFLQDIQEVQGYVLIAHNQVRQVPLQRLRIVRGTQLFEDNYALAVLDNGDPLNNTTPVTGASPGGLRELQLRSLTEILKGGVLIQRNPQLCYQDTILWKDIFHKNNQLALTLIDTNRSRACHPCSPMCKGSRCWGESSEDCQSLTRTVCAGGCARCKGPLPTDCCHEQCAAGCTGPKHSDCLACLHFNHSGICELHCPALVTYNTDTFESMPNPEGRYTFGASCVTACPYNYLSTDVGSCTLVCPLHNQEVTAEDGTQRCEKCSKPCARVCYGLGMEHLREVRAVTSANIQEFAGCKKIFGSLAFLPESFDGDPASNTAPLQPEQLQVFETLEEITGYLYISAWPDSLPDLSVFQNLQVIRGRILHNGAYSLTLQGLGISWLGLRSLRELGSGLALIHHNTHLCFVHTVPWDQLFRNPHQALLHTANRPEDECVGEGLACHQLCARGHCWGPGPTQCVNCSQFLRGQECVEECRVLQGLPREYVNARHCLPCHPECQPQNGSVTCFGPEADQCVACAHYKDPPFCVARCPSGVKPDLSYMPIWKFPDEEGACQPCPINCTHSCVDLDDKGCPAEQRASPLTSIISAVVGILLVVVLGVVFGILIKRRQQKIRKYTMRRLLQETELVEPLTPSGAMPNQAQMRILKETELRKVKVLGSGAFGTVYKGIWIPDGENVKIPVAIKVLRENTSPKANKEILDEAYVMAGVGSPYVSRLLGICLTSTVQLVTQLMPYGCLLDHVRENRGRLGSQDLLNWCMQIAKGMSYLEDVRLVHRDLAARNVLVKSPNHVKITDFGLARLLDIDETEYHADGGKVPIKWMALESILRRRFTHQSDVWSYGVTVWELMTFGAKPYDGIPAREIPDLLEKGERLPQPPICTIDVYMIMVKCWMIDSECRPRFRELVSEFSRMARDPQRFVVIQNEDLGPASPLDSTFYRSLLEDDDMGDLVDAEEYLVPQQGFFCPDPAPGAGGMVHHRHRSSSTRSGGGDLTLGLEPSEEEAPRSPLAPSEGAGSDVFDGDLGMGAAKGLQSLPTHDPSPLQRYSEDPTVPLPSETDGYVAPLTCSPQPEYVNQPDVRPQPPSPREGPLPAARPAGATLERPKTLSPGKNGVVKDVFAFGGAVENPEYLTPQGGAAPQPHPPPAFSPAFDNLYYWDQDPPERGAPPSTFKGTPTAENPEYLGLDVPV
Protocol: BMX, TXK, EGFR, ERBB2, ERBB4, JAK3, BLK kinase activity was measured using the Z′-LYTE assay at Thermo Fisher. A 10-point dose response (final concentration in assay ranged from 10 μM to 0.5 nM in 3-fold dilution per dilution step) was generated with 1 h incubation of the test compound with the kinase prior to initiation of the kinase reaction by the addition of ATP. ATP concentration in the assay was Km ATP for the different kinases. IC50 values are determined by curve fitting of the experimental results at Thermo Fisher.

ERBB4 = ERBB4 (Homo sapiens (Human), UniProt Q15303); assay: DiscoveRx Kd dose response, ERBB4; assay type: binding
Chain of ERBB4 (Q15303 26-1308): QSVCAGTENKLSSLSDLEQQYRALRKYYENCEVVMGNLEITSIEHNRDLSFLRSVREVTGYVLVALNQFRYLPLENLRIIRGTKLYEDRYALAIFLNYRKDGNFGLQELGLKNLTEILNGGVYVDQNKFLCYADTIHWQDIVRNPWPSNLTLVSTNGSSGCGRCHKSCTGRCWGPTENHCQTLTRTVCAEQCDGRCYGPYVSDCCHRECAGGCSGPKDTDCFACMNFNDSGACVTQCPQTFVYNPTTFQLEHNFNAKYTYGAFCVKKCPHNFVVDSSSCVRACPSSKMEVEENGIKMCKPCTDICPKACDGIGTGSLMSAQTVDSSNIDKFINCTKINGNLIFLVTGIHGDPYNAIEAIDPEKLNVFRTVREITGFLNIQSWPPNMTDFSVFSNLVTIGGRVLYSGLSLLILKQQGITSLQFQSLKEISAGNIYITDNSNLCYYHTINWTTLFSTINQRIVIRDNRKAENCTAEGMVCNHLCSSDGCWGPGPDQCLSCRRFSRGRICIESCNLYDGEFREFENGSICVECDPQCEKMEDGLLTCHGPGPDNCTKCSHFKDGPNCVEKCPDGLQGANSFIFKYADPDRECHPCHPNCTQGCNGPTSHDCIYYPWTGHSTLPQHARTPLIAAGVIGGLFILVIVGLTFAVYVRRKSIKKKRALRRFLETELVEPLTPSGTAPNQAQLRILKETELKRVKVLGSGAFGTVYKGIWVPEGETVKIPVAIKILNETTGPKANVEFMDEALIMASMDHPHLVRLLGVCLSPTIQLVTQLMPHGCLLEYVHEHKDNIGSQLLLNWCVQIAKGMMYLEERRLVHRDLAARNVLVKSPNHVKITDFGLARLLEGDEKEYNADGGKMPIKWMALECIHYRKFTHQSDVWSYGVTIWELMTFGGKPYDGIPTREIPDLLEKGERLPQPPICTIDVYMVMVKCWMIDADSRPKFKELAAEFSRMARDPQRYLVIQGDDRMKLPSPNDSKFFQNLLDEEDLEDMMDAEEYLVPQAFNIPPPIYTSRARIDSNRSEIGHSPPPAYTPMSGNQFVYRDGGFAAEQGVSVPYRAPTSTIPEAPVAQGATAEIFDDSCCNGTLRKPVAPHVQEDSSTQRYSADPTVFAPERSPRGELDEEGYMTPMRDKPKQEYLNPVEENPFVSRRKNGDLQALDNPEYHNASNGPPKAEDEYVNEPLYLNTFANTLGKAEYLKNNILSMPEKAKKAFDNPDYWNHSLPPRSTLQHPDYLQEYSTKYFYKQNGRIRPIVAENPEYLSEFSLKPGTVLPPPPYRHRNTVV
Protocol: Kinase profiling was performed with M27 was done at DiscoveRx at a single dose of 1 μM on all available kinases (KINOMEscan). The overall kinase selectivity score is in Table 6. […] Kinases inhibited >65% at 1 μM for M27 were followed up with a dose response at DiscoveRx. The M27 had IC50 values <1 μM for almost the same set of kinases with exception of TXK, but with additional inhibition of BRK (PTK6).

EC50 (anti-IgM-induced CD69) [nM] | IC50 (ERBB2) [nM] | Kd (ERBB4) [nM] | Structure (SMILES)
19 ± 6 |  |  | CC#CC(=O)NCCCC(=O)c1nc(-c2ccc(C(=O)Nc3ccccn3)c(OC)c2)c2c(N)nccn12 [Formula (II), 4-(8-amino-3-(4-(but-2-ynamido)butanoyl)imidazo[1,5-a]pyrazin-1-yl)-2-methoxy-N-(pyridin-2-yl)benzamide]
26 ± 16 | 552 ± 166 | 970 | CC#CC(=O)NCCCC(=O)c1nc(-c2ccc(C(=O)Nc3ccccn3)cc2)c2c(N)nccn12 [Formula (I), 4-(8-amino-3-(4-(but-2-ynamido)butanoyl)imidazo[1,5-a]pyrazin-1-yl)-N-(pyridin-2-yl)benzamide]
